The values that follow come from PMC10772362 (RSC Advances, 2024).

Several values for one entry are separate records, joined by “and”; a condition that tells them apart may be missing. Equal entries are not always repeated.

Test [1] deals with KB (human mouth epidermal carcinoma) cell line. In words: MTT cytotoxicity assay, KB cells. The conditions noted are these: for IC50: Homo sapiens, KB, 72 h, read-out: IC50, KB; for Selective index, KB: ratio IC50 in Hek-293 to IC50 in KB. Background: Formazan colour is commonly taken as a measure of viable cells.
For test [2], the system named is A549 (human lung adenocarcinoma) cell line. The test is described as follows: MTT cytotoxicity assay, A549 cells. The conditions noted are these: for IC50: Homo sapiens, A549, 72 h, read-out: IC50, A549; for Selective index, A549: ratio IC50 in Hek-293 to IC50 in A549.
Test [3] relates to MCF7 (human breast adenocarcinoma) cell line. The test is described as follows: MTT cytotoxicity assay, MCF7 cells. The conditions noted are these: for IC50: Homo sapiens, MCF7, 72 h, read-out: IC50, MCF7; for Selective index, MCF7: ratio IC50 in Hek-293 to IC50 in MCF7.
Test [4] has as its system HepG2 (human hepatocellular carcinoma) cell line. In words: MTT cytotoxicity assay, HepG2 cells. The conditions noted are these: for IC50: Homo sapiens, HepG2, 72 h, read-out: IC50, HepG2; for Selective index, HepG2: ratio IC50 in Hek-293 to IC50 in HepG2.
Test [5] has as its system Hek-293 (human embryonic kidney 293) cell line. The test is described as follows: MTT cytotoxicity assay, normal Hek-293 cells. The conditions noted are these: HEK293, 72 h, read-out: IC50, Hek-293.
The subject of test [6] is KB, A549, and HepG2 cell lines. In words: MTT cytotoxicity assay, summary over KB, A549 and HepG2. The conditions noted are these: Homo sapiens, read-out: IC50 values ranging over KB, A549, and HepG2 cell lines.

For the compound `Cc1c2ccncc2c(C)c2c1[nH]c1ccccc12` [Ellipticine, ellipticine, reference compound], in test [1], the IC50 stood at 1.95 ± 0.12 µM and the “Selective index, KB” value was found to be 2.88. Also, in test [2], the half-inhibitory concentration (IC50) was determined as 1.42 ± 0.08 µM and the “Selective index, A549” value is given as 3.94. Besides, in test [3], the IC50 was found to be 2.09 ± 0.16 µM and the “Selective index, MCF7” value was 2.68. Further, in test [4], the IC50 came out at 2.11 ± 0.16 µM and the “Selective index, HepG2” value is given as 2.65. Moreover, the IC50 in test [5] is 5.6 ± 0.37 µM.

Regarding `O=C1OCC2=C1C(c1ccoc1)C1=C(N2)C(=O)c2ccccc2C1=O` (stereo not drawn) [Compound 13b, 11-(Furan-3-yl)-4,11-dihydrobenzo[g]furo[3,4-b]quinolin-1,5,10(3H)-trione], the IC50 in test [1] was 10.1 ± 1.17 µM; in test [2] it was 3.09 ± 0.39 µM; in test [3], 12.6 ± 1.14 µM; in test [4] it was 12.4 ± 1.29 µM; in test [5] it was 13.8 ± 1.41 µM. Also, the “Selective index, KB” value in test [1] amounted to 1.37. Besides, the “Selective index, A549” value in test [2] worked out at 4.47. Moreover, the “Selective index, MCF7” value in test [3] is 1.09. Besides, the “Selective index, HepG2” value in test [4] is 1.12.

With `O=C1OCC2=C1C(c1cnc(Cl)s1)C1=C(N2)C(=O)c2ccccc2C1=O` (stereo not drawn) [Compound 13h, 11-(2-Chlorothiazol-5-yl)-4,11-dihydrobenzo[g]furo[3,4-b]quinolin-1,5,10(3H)-trione], in test [1], the IC50 was 1.12 ± 0.1 µM and the “Selective index, KB” value is reported as 1.23. Also, in test [2], the IC50 was determined as 0.16 ± 0.02 µM and the “Selective index, A549” value came to 8.55. Also, in test [3], the IC50 amounted to 1.07 ± 0.1 µM and the “Selective index, MCF7” value turned out to be 1.29. In test [4], the IC50 amounted to 0.81 ± 0.11 µM and the “Selective index, HepG2” value is given as 1.71. In test [5], the IC50 was found to be 1.38 ± 0.18 µM.

As for `O=C1OCC2=C1C(c1ccn[nH]1)C1=C(N2)C(=O)c2ccccc2C1=O` (stereo not drawn) [Compound 13j, 11-(1H-pyrazol-5-yl)-4,11-dihydrobenzo[g]furo[3,4-b]quinolin-1,5,10(3H)-trione], the IC50 amounted to 6 ± 0.63 µM in test [1]; 5.43 ± 0.39 µM in test [2]; 3.24 ± 0.36 µM in test [3]; 4.35 ± 0.57 µM in test [4]; 3.75 ± 0.69 µM in test [5]. Besides, the “Selective index, KB” value in test [1] came out at 0.63. For the same compound, the “Selective index, A549” value in test [2] came to 0.69. For the same compound, in test [3], the “Selective index, MCF7” value was 1.16. For the same compound, the “Selective index, HepG2” value in test [4] was 0.86.

As to `O=C1OCC2=C1C(c1cc3ccccc3s1)C1=C(N2)C(=O)c2ccccc2C1=O` (stereo not drawn) [Compound 13g, 11-(Benzo[b]thiophen-2-yl)-4,11-dihydrobenzo[g]furo[3,4-b]quinolin-1,5,10(3H)-trione], the IC50 in test [1] is 9.94 ± 0.65 µM; in test [2], 3.13 ± 0.2 µM; in test [3], 11.3 ± 1.78 µM; in test [4] it was 12.7 ± 1.4 µM; in test [5], 13.1 ± 1.7 µM. The “Selective index, KB” value in test [1] was found to be 1.31. In addition, in test [2], the “Selective index, A549” value was 4.18. Moreover, the “Selective index, MCF7” value in test [3] is recorded as 1.16. The “Selective index, HepG2” value in test [4] stood at 1.03.

For `Cc1c(C2C3=C(COC3=O)NC3=C2C(=O)c2ccccc2C3=O)cnn1C` (stereo not drawn) [Compound 13i, 11-(1,5-Dimethyl-1H-pyrazol-4-yl)-4,11-dihydrobenzo[g]furo[3,4-b]quinolin-1,5,10(3H)-trione], in test [1], the IC50 was found to be 10.7 ± 1.27 µM and the “Selective index, KB” value worked out at 1.14. Further, in test [2], the IC50 was 2.27 ± 0.22 µM and the “Selective index, A549” value was determined as 5.40. For the same compound, in test [3], the IC50 was 10.4 ± 0.8 µM and the “Selective index, MCF7” value turned out to be 1.18. In test [4], the IC50 came out at 7.8 ± 0.53 µM and the “Selective index, HepG2” value amounted to 1.57. Moreover, in test [5], the IC50 turned out to be 12.3 ± 1.13 µM.

As to `O=C1OCC2=C1C(c1ncccc1F)C1=C(N2)C(=O)c2ccccc2C1=O` (stereo not drawn) [Compound 13l, 11-(3-Fluoropyridin-2-yl)-4,11-dihydrobenzo[g]furo[3,4-b]quinolin-1,5,10(3H)-trione], in test [1], the IC50 is 4.69 ± 0.58 µM and the “Selective index, KB” value was 2.18. Further, in test [2], the IC50 amounted to 2.15 ± 0.25 µM and the “Selective index, A549” value is on record as 4.74. Further, in test [3], the IC50 came out at 7.34 ± 0.94 µM and the “Selective index, MCF7” value came to 1.39. In test [4], the IC50 is 5.52 ± 0.86 µM and the “Selective index, HepG2” value turned out to be 1.85. The IC50 in test [5] stood at 10.2 ± 1.24 µM.

In the case of `COc1cc(C2C3=C(COC3=O)NC3=C2C(=O)c2ccccc2C3=O)ccn1` (stereo not drawn) [Compound 13k, 11-(2-Methoxypyridin-4-yl)-4,11-dihydrobenzo[g]furo[3,4-b]quinolin-1,5,10(3H)-trione], the IC50 in test [1] was 0.27 ± 0.24 µM; in test [2], 0.27 ± 0.21 µM; in test [3], 1.34 ± 0.16 µM; in test [4] it was 0.23 ± 0.02 µM; in test [5] it was 2.48 ± 0.32 µM; in test [6], 0.23 to 0.27 µM. The “Selective index, KB” value in test [1] is on record as 9.30. Further, the “Selective index, A549” value in test [2] is given as 9.30. For the same compound, the “Selective index, MCF7” value in test [3] was determined as 1.86. The “Selective index, HepG2” value in test [4] was 10.81.

For `O=C1OCC2=C1C(c1csc3ccccc13)C1=C(N2)C(=O)c2ccccc2C1=O` (stereo not drawn) [Compound 13e, 11-(Benzo[b]thiophen-3-yl)-4,11-dihydrobenzo[g]furo[3,4-b]quinolin-1,5,10(3H)-trione], in test [1], the IC50 turned out to be 10.9 ± 1.4 µM and the “Selective index, KB” value was 1.02. Besides, in test [2], the IC50 is 9.94 ± 0.73 µM and the “Selective index, A549” value amounted to 1.12. Besides, in test [3], the IC50 was determined as 13.1 ± 1.6 µM and the “Selective index, MCF7” value is reported as 0.85. Also, in test [4], the IC50 came to 10.4 ± 1.18 µM and the “Selective index, HepG2” value is recorded as 1.07. Also, in test [5], the IC50 amounted to 11.2 ± 0.85 µM.

Consider `O=C1OCC2=C1C(c1ccco1)C1=C(N2)C(=O)c2ccccc2C1=O` (stereo not drawn) [Compound 13c, 11-(Furan-2-yl)-4,11-dihydrobenzo[g]furo[3,4-b]quinolin-1,5,10(3H)-trione], for which, in test [1], the IC50 was 14.2 ± 1.23 µM and the “Selective index, KB” value is 1.02. Also, in test [2], the IC50 came to 3.06 ± 0.27 µM and the “Selective index, A549” value was determined as 4.75. Besides, in test [3], the concentration for half-maximal inhibition (IC50) stood at 12.2 ± 1.14 µM and the “Selective index, MCF7” value amounted to 1.20. For the same compound, in test [4], the IC50 is 3.75 ± 0.69 µM and the “Selective index, HepG2” value was 3.88. In addition, in test [5], the IC50 is 14.6 ± 1.35 µM.

Consider `O=C1OCC2=C1C(c1ccsc1)C1=C(N2)C(=O)c2ccccc2C1=O` (stereo not drawn) [Compound 13a, 11-(Thiophen-3-yl)-4,11-dihydrobenzo[g]furo[3,4-b]quinolin-1,5,10(3H)-trione], for which the IC50 in test [1] turned out to be 1.43 ± 0.14 µM; in test [2], 0.48 ± 0.03 µM; in test [3], 2.06 ± 0.66 µM; in test [4], 1.43 ± 0.15 µM; in test [5], 22.9 ± 2.18 µM. Besides, the “Selective index, KB” value in test [1] came out at 16.00. Also, the “Selective index, A549” value in test [2] is recorded as 47.90. In addition, in test [3], the “Selective index, MCF7” value is reported as 11.12. For the same compound, the “Selective index, HepG2” value in test [4] is recorded as 16.00.

For the compound `COc1ncc(C(F)(F)F)cc1C1C2=C(COC2=O)NC2=C1C(=O)c1ccccc1C2=O` (stereo not drawn) [Compound 13m, 11-(2-Methoxy-5-(trifluoromethyl)pyridin-3-yl)-4,11-dihydrobenzo[g]furo[3,4-b]quinolin-1,5,10(3H)-trione], in test [1], the IC50 came out at 4.63 ± 1.04 µM and the “Selective index, KB” value is recorded as 3.61. Also, in test [2], the IC50 stood at 2.83 ± 0.54 µM and the “Selective index, A549” value was found to be 5.92. In test [3], the IC50 was 7.26 ± 1.29 µM and the “Selective index, MCF7” value was found to be 2.31. For the same compound, in test [4], the IC50 turned out to be 5.83 ± 0.86 µM and the “Selective index, HepG2” value turned out to be 2.87. The IC50 in test [5] is 16.7 ± 1.94 µM.

As to `O=C1OCC2=C1C(c1coc3ccccc13)C1=C(N2)C(=O)c2ccccc2C1=O` (stereo not drawn) [Compound 13f, 11-(Benzofuran-3-yl)-4,11-dihydrobenzo[g]furo[3,4-b]quinolin-1,5,10(3H)-trione], in test [1], the “fold higher toxicity when compared with ellipticine, KB” value was around 1.8 fold; the IC50 worked out at 1.1 ± 0.09 µM; the “Selective index, KB” value amounted to 17.98. Besides, in test [2], the IC50 was found to be 7.02 ± 0.91 µM and the “Selective index, A549” value amounted to 2.81. In test [3], the IC50 was found to be 12.7 ± 1.2 µM and the “Selective index, MCF7” value is given as 1.56. In test [4], the “fold higher toxicity when compared with ellipticine, HepG2” value was around 1.8 fold; the IC50 was determined as 1.3 ± 0.13 µM; the “Selective index, HepG2” value is recorded as 15.10. Besides, the IC50 in test [5] worked out at 19.7 ± 1.7 µM.

On to `O=C1OCC2=C1C(c1ccc(Br)o1)C1=C(N2)C(=O)c2ccccc2C1=O` (stereo not drawn) [Compound 13d, 11-(5-Bromofuran-2-yl)-4,11-dihydrobenzo[g]furo[3,4-b]quinolin-1,5,10(3H)-trione], for which the IC50 came out at 2.81 ± 0.32 µM in test [1]; 2.06 ± 0.22 µM in test [2]; 10.4 ± 1.29 µM in test [3]; 0.3 ± 0.06 µM in test [4]; 37.1 ± 3.3 µM in test [5]. The “Selective index, KB” value in test [1] is listed as 13.19. For the same compound, the “Selective index, A549” value in test [2] turned out to be 18.00. Also, the “Selective index, MCF7” value in test [3] turned out to be 3.58. The “Selective index, HepG2” value in test [4] was 122 and 122.40.

For orientation: IC50 means the concentration that inhibits the measured activity by half.
